The record followed here is PubChem BioAssay AID1205 (EPA DSSTox, 2008).

SMILES strings stand for the structures. The source made the active and inactive calls.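 Rule for the calls: active = tumour findings in long-term animal cancer tests in more than one sex, species or organ; inactive = no tumour finding and more than one negative test.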

The data set can be described thus: DSSTox (CPDBAS) Carcinogenic Potency Database Summary MultiCellCall Results. The settings on record: animal carcinogenicity bioassays, multi-cell call summary. A digest of the protocol: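 ActivityScore sums 50 for multispecies, 30 for multisex and 20 for multisite positivity. Based on the most positive experiment per sex-species across standardised chronic rodent and other animal cancer tests.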

For `O=P(OCCCl)(OCCCl)OCCCl`, the outcome was “active; multisite active; multisex active; multispecies active”.
In the case of `CC(C)C/C=N/N(C)C=O`, the outcome is “active; multisite active; multisex active”.
With `C=Cc1cccc[n+]1[O-]` the entry was “inactive; multispecies inactive”; with `CCCCOC(=O)c1ccc(O)cc1`, “inactive; multisex inactive”.
Turning to `CCOC(=O)C(C)(C)Oc1ccc(Cl)cc1`, the outcome was “active; multisite active”.
Turning to `O=C(O)C(Cl)Cl`, the outcome is “active; multisex active; multispecies active”.
In the case of `CC(C)C=O`, the outcome was “inactive; multisex inactive; multispecies inactive”.
Then `CCOP(=S)(OCC)Oc1ccc2c(C)c(Cl)c(=O)oc2c1`, with “inactive; multisex inactive; multispecies inactive”.
As to `NC(=O)NC1NC(=O)NC1=O` (stereo not given), the outcome is “inactive; multisex inactive”.
Then `O=NN1CCOCC1`, with “active; multisite active; multisex active; multispecies active”; and `CC(C)(CO)CCCCCCC(C)(C)CO`, with “inactive; multisex inactive”; and `CC(O)CO` (stereo not given), with “inactive; multisex inactive”.
Then `C=CCc1ccc2c(c1)OCO2`, with “active; multisex active; multispecies active”.
In the case of `FC(F)(F)CCl`, the outcome was “active; multisite active; multisex active”.
With `Nc1ccc(Sc2ccc(N)cc2)cc1` the entry was “active; multisite active; multisex active; multispecies active”; with `Nc1ccccc1`, “active; multisite active; multisex active”.
Consider `C=C/C=N/O`, for which the outcome was “inactive; multisex inactive”.
With `ClC1=C(Cl)C(Cl)(Cl)C(Cl)=C1Cl` the entry was “inactive; multisex inactive; multispecies inactive”.
With `COc1cccc2c1C(=O)c1c(O)c3c(c(O)c1C2=O)C[C@@](O)(C(=O)CO)C[C@@H]3O[C@H]1C[C@H](N)[C@H](O)[C@H](C)O1` the entry was “inactive; multispecies inactive”; with `CCN(N=O)C(=O)NCCO`, “active; multisite active; multisex active; multispecies active”.
`F[B-](F)(F)F`: the outcome is “inactive; multisex inactive”.
On to `COC(=O)C1=CCCN(C)C1`, for which the outcome is “active; multisite active; multisex active”.
Then `CCNC(=O)N(CCO)N=O`, with “active; multisite active; multisex active”.
On to `[Cd+2].[Cl-].[Cl-]`, for which the outcome is “active; multisite active; multisex active”.
In the case of `FC(F)=C(F)F`, the outcome was “active; multisite active; multisex active; multispecies active”.
As for `N#CC(c1ccccc1)c1ccccc1`, the outcome is “inactive; multisex inactive”.
As to `CCN(C#N)N=O`, the outcome was “active; multisex active”.
With `CCCOC(=O)c1cc(O)c(O)c(O)c1` the entry was “inactive; multisex inactive; multispecies inactive”; with `C1CCNCC1`, “inactive; multisex inactive”.
As for `CCN(Cc1cccc(S(=O)(=O)O)c1)c1ccc(C(=C2C=CC(=[N+](CC)Cc3cccc(S(=O)(=O)[O-])c3)C=C2)c2ccccc2)cc1`, the outcome is “active; multisite active; multisex active”.
As for `Nc1ccc(Oc2ccc(N)cc2)cc1`, the outcome was “active; multisite active; multisex active; multispecies active”.
Then `CC1(C)[C@H](C(=O)O[C@H](C#N)c2cccc(Oc3ccccc3)c2)[C@@H]1C=C(Br)Br`, with “inactive; multisex inactive; multispecies inactive”; and `O=NN(CCO)C(=O)NCCCl`, with “active; multisite active; multisex active”; and `COc1cc2c(c3oc(=O)c4c(c13)CCC4=O)C1C=COC1O2` (stereo not given), with “active; multisite active; multisex active; multispecies active”.
Consider `C=C/C1=C/[C@H](C)[C@](C)(OC(C)=O)C(=O)OCC2=CC[N+]3(C)CC[C@@H](OC1=O)C23[O-]` (stereo not given in full), for which the outcome is “active; multisite active”.
As for `N#Cc1c(Cl)c(Cl)c(Cl)c(C#N)c1Cl`, the outcome was “active; multisex active”.
Consider `CN(N=O)C1=Nc2ccc(Cl)cc2C(c2ccccc2)=[N+]([O-])C1`, for which the outcome was “inactive; multisex inactive”.
Then `CCCNC(=O)NS(=O)(=O)c1ccc(Cl)cc1`, with “inactive; multisex inactive; multispecies inactive”; and `O=C/C=C/O`, with “active; multisite active; multisex active; multispecies active”; and `C=CCOC(=O)c1ccccc1C(=O)OCC=C`, with “inactive; multisex inactive; multispecies inactive”.
Regarding `CN(N=O)C(=O)NCCC[C@H](N)C(=O)O`, the outcome is “active; multisite active; multisex active”.
As to `O=C/C(Cl)=C(/Cl)C(=O)O`, the outcome was “inactive; multisex inactive”.
On to `CCc1ccc(C(c2ccc(CC)cc2)C(Cl)Cl)cc1`, for which the outcome was “inactive; multisex inactive; multispecies inactive”.
As to `C[C@@H]1C/C=C/C=C/C=C/C=C/[C@H](O[C@@H]2O[C@H](C)[C@@H](O)[C@H](N)[C@@H]2O)C[C@@H]2O[C@](O)(C[C@@H](O)C[C@H]3O[C@@H]3/C=C/C(=O)O1)C[C@H](O)[C@H]2C(=O)O`, the outcome was “inactive; multisex inactive”.
As to `O=NO`, the outcome is “active; multisite active; multisex active”.
Turning to `Oc1ccc2c(c1)OCO2`, the outcome is “active; multisex active; multispecies active”.
With `C=CC(=O)O` the entry was “inactive; multisex inactive”; with `CN(C)c1ccc(C(=O)c2ccc(N(C)C)cc2)cc1`, “active; multisite active; multisex active; multispecies active”.
Regarding `O=Nc1ccc(Nc2ccccc2)cc1`, the outcome is “active; multispecies active”.
Turning to `Nc1ccc(N)c(Cl)c1`, the outcome is “inactive; multisex inactive; multispecies inactive”.
As to `CC(=O)OCc1ccccc1`, the outcome is “active; multisite active; multisex active”.
Then `Brc1cc(Br)c(-c2c(Br)c(Br)c(Br)c(Br)c2Br)c(Br)c1Br`, with “active; multisex active”; and `O=[N+]([O-])c1ccc(Cl)cc1`, with “active; multisite active; multisex active”.
In the case of `c1ccc2[nH]c(-c3cscn3)nc2c1`, the outcome was “inactive; multisex inactive; multispecies inactive”.
As for `Nc1ccc(Cc2ccc(N)c(Cl)c2)cc1Cl`, the outcome is “active; multisite active; multisex active; multispecies active”.
With `O=S(=O)(O)c1cc(S(=O)(=O)O)c2c(N=Nc3ccccc3)c(O)ccc2c1` the entry was “inactive; multisex inactive; multispecies inactive”; with `CCCCCN(N=O)C(N)=O`, “active; multisite active; multisex active”; with `Nc1ccc(-c2ccccc2)cc1`, “active; multisite active; multisex active”.
Then `OCCBr`, with “active; multisex active”; and `Cc1cc(N=Nc2ccccc2C)ccc1N`, with “active; multisex active”; and `O.O=S(=O)([O-])[O-].[Mn+2]`, with “inactive; multisex inactive; multispecies inactive”.
For the compound `O=NN1CCCC1`, the outcome is “active; multisite active; multisex active; multispecies active”.
Regarding `CCCC[C@H](C)[C@@H](OC(=O)C[C@H](CC(=O)O)C(=O)O)[C@@H](C[C@H](C)C[C@@H](O)CCCC[C@@H](O)C[C@H](O)[C@H](C)N)OC(=O)C[C@H](CC(=O)O)C(=O)O`, the outcome was “active; multisite active; multisex active; multispecies active”.
For the compound `Cc1ccc(N=Nc2c(O)c(S(=O)(=O)O)cc3ccc(S(=O)(=O)O)cc23)c(C)c1`, the outcome is “active; multisex active; multispecies active”.
As for `CN(C)C(=O)Cl`, the outcome is “active; multisite active; multisex active; multispecies active”.
Turning to `O=S(=O)([O-])[O-].[O]=[V+2]`, the outcome was “inactive; multisex inactive; multispecies inactive”.
Regarding `CC(=O)O[C@H]1CC[C@@]2(C)C(=CC[C@@H]3[C@@H]2CC[C@]2(C)C(=O)CC[C@@H]32)C1`, the outcome was “active; multisex active”.
As for `CC(C)Oc1ccc(Nc2ccccc2)cc1`, the outcome is “inactive; multisex inactive”.
Turning to `Cc1ccc2c(c1N)C(=O)c1ccccc1C2=O`, the outcome was “active; multisite active; multisex active; multispecies active”.
In the case of `C/C(=C(\CCOC(=O)c1ccccc1)SC(=O)c1ccccc1)N(C=O)Cc1cnc(C)nc1N`, the outcome is “inactive; multisex inactive”.
`COC(N)=O`: the outcome was “active; multisex active”.
With `Nc1ccccc1C(=O)O` the entry was “inactive; multisex inactive; multispecies inactive”.
Then `[Na+]`, with “inactive; multisex inactive; multispecies inactive”; and `c1ccc2sc(SNC3CCCCC3)nc2c1`, with “inactive; multisex inactive”; and `O=C1C(O)N=C(c2ccccc2F)c2cc(Cl)ccc2N1CCO` (stereo not given), with “inactive; multisex inactive”.
Turning to `CC(C)CCCCCCOC(=O)c1ccccc1C(=O)OCCCCCCC(C)C`, the outcome is “active; multisite active; multisex active; multispecies active”.
For the compound `Nc1ccc(/C=C/c2ccc(N)cc2S(=O)(=O)O)c(S(=O)(=O)O)c1`, the outcome is “inactive; multisex inactive; multispecies inactive”.
In the case of `O=NN(CCCl)C(=O)N[C@@H]1[C@@H](O)[C@H](O)[C@@H](CO)O[C@@H]1O`, the outcome is “active; multisex active”.
Then `NC(=O)OCC(COC(N)=O)c1ccccc1`, with “active; multisite active; multisex active; multispecies active”; and `[S-]c1nc2ccccc2s1.[S-]c1nc2ccccc2s1.[Zn+2]`, with “inactive; multisex inactive”.
Consider `Cc1cc(C(C)(C)C)c(O)c(C(C)(C)C)c1`, for which the outcome was “active; multisite active”.
Regarding `ClC1=C(Cl)[C@]2(Cl)[C@@H]3[C@H]4C[C@H]([C@@H]5O[C@H]45)[C@@H]3[C@@]1(Cl)C2(Cl)Cl`, the outcome was “inactive; multisex inactive; multispecies inactive”.
With `O.O.O.O.O=C([O-])CC(O)(CC(=O)[O-])C(=O)[O-].[Fe+3]` the entry was “inactive; multisex inactive”; with `CCCCN(CCCC)C(=S)[S-].CCCCN(CCCC)C(=S)[S-].[Zn+2]`, “inactive; multisex inactive”; with `O=[N+]([O-])c1ccc2nc[nH]c2c1`, “active; multisex active”.
